US9409888B2, “Dimeric compounds” (priority 2012, dated 2016)

How the values were obtained:
BIR2 domain of XIAP = BIR2 domain of XIAP (Homo sapiens (Human), UniProt P98170, C202A/C213G); experiment: TR-FRET assay for BIR2: inhibition of binding of XIAP BIR2 domain to Peptide A (SMAC-derived peptide); details: 6× His-tagged BIR2 domain (aa 124-240 of XIAP) 10 nM, Peptide A 20 nM
Protocol: TR-FRET Assay for BIR2 and BIR3
The peptides were labeled with the fluorescent tags FITC or TAMRA and Kd values were determined by fluorescence polarization assay. […] The peptide sequence was derivatized with biotin to provide […]-(ε-biotin)-OH 1:2 TFA as the substrate for the TR-FRET assay.
The XIAP protein sequence was obtained from the SWISS-PROT protein sequence database and the BIR2 and BIR3 domains were derived from that. The sequence of the BIR2 domain used for the TR-FRET assay is […].
Time-resolved fluorescence resonance energy transfer (TR-FRET) signals were measured 1 hour later at room temperature. Test compound potency was assessed at 10 serially diluted concentrations. Percentage of inhibition at each concentration was determined to generate an IC50 value for each test compound.

BIR3 domain of XIAP = BIR3 domain of XIAP (Homo sapiens (Human), UniProt P98170); experiment: TR-FRET assay for BIR3: inhibition of binding of XIAP BIR3 domain to Peptide A (SMAC-derived peptide); details: 6× His-tagged BIR3 domain (aa 241-356 of XIAP) 10 nM, Peptide A 20 nM
BIR3 domain of XIAP, sequence (P98170 other isoform, or with tags, fused parts or gaps): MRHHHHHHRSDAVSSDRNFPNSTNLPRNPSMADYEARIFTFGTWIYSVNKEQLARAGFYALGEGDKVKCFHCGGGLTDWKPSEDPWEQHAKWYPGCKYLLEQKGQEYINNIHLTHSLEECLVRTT

BIR2 domain of XIAP, sequence (P98170 other isoform, or with tags, fused parts or gaps, stated change not applied): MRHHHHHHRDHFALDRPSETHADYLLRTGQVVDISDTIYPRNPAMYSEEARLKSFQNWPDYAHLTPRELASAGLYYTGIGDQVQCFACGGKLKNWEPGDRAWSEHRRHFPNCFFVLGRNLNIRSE

Which IC50 (BIR2 domain of XIAP) does the source give for `CN[C@@H](C)C(=O)N[C@H]1CN(C(=O)c2cncc(C(=O)N3C[C@H](NC(=O)[C@H](C)NC)C(=O)N(Cc4c(OC)ccc5cc(Br)ccc45)c4ccccc43)c2)c2ccccc2N(Cc2c(OC)ccc3cc(Br)ccc23)C1=O` [Ex 8, (2S)-N-[(3S)-5-[(6-Bromo-2-methoxy-1-naphthyl)methyl]-1-[5-[(3S)-5-[(6-bromo-2-methoxy-1-naphthyl)methyl]-3-[[(2S)-2-(methylamino)propanoyl]amino]-4-oxo-2,3-dihydro-1,5-benzodiazepine-1-carbonyl]pyridine-3-carbonyl]-4-oxo-2,3-dihydro-1,5-benzodiazepin-3-yl]-2-(methylamino)propanamide] here?
Its IC50 is 1.32 nM.

What about the IC50 (BIR3 domain of XIAP) of the same compound?
Its IC50 is over 5480 nM.

How did the IC50 (BIR2 domain of XIAP) turn out when `CN[C@@H](C)C(=O)N[C@H]1CN(C(=O)c2ccc(C(=O)N3C[C@H](NC(=O)[C@H](C)NC)C(=O)N(Cc4c(OC)ccc5cc(Br)ccc45)c4ccccc43)c(C)c2)c2ccccc2N(Cc2c(OC)ccc3cc(Br)ccc23)C1=O` [Ex 10, (2S)-N-[(3S)-5-[(6-Bromo-2-methoxy-1-naphthyl)methyl]-1-[4-[(3S)-5-[(6-bromo-2-methoxy-1-naphthyl)methyl]-3-[[(2S)-2-(methylamino)propanoyl]amino]-4-oxo-2,3-dihydro-1,5-benzodiazepine-1-carbonyl]-3-methyl-benzoyl]-4-oxo-2,3-dihydro-1,5-benzodiazepin-3-yl]-2-(methylamino)propanamide] was run?
Its IC50 is 1.38 nM.

And the IC50 (BIR3 domain of XIAP)?
The IC50 was over 5480 nM.

Which results are given for `CN[C@@H](C)C(=O)N[C@H]1CN(C(=O)c2cc(C)c(C(=O)N3C[C@H](NC(=O)[C@H](C)N)C(=O)N(Cc4c(OC)ccc5cc(Br)ccc45)c4ccccc43)cc2C)c2ccccc2N(Cc2c(OC)ccc3cc(Br)ccc23)C1=O` [Ex 13, (2S)-2-Amino-N-[(3S)-5-[(6-bromo-2-methoxy-1-naphthyl)methyl]-1-[4-[(3S)-5-[(6-bromo-2-methoxy-1-naphthyl)methyl]-3-[[(2S)-2-(methylamino)propanoyl]amino]-4-oxo-2,3-dihydro-1,5-benzodiazepine-1-carbonyl]-2,5-dimethyl-benzoyl]-4-oxo-2,3-dihydro-1,5-benzodiazepin-3-yl]propanamide]?
IC50 (BIR2 domain of XIAP): 0.801 nM; IC50 (BIR3 domain of XIAP): > 5480 nM

What does the source list for `CN[C@@H](C)C(=O)N[C@H]1CN(C(=O)CCCCCCC(=O)N2C[C@H](NC(=O)[C@H](C)NC)C(=O)N(Cc3c(OC)ccc4cc(Br)ccc34)c3ccccc32)c2ccccc2N(Cc2c(OC)ccc3cc(Br)ccc23)C1=O` [Ex 18, (2S)-N-[(3S)-5-[(6-Bromo-2-methoxy-1-naphthyl)methyl]-1-[8-[(3S)-5-[(6-bromo-2-methoxy-1-naphthyl)methyl]-3-[[(2S)-2-(methylamino)propanoyl]amino]-4-oxo-2,3-dihydro-1,5-benzodiazepin-1-yl]-8-oxo-octanoyl]-4-oxo-2,3-dihydro-1,5-benzodiazepin-3-yl]-2-(methylamino)propanamide]?
IC50 (BIR2 domain of XIAP): 0.871 nM; IC50 (BIR3 domain of XIAP): > 5480 nM
